Results from patent US10722496B2, “2-iminobiotin for use in the treatment of brain cell injury” (Neurophyxia B.V., priority 2015, dated 2020).

What was measured:
Type in all cases: cell-based, human
IMR-32 cell cultures [1] = experiment: ROS fluorometric assay after hypoxia under mild hypothermia
Protocol: (§1) In-vitro hypoxia was induced for 7 hours using IMR-32 cell cultures. After the hypoxic insult, cultures were subjected to 25 hours of mild hypothermia (33.5° C.) and were incubated with or without 2-IB (10, 30, 50, 100 and 300 ng/ml). Cell morphology was evaluated by brightfield microscopy and cell damage was analyzed by LDH assays. Production of reactive oxygen species (ROS) was measured using fluorometric assays. Western blotting for PARP and phosphorylated as well as unphosphorylated akt and erkl/2 was performed.

IMR-32 cell cultures [2] = experiment: Hydrogen peroxide after hypoxia under mild hypothermia; settings: post-hypoxic application
Protocol: as §1

IMR-32 cells = experiment: LDH cytotoxicity assay, hypoxia-induced cell damage
Protocol: In vitro hypoxia was induced in the cell cultures by using our recently described system with minor modifications (Huang et al., 2013b; Weber et al., 2015; Zitta et al., 2010). Enzyme stock solutions (100×) of catalase and glucose oxidase (both from Sigma-Aldrich) were prepared in cell culture medium (DMEM/F12, 1% FCS; final concentration: 120 U/ml and 2 U/ml respectively; Sigma-Aldrich) leading to a decrease of partial pressure of oxygen (pO2) below 10 mmHg within 5 minutes. Hypoxic conditions were confirmed by using a tissue oxygen pressure monitor (LICOX® CMP Oxygen Catheter; Integra, Plainsboro, USA). After 7 hours of hypoxia, the cells were washed twice with PBS (PAA) and fresh normoxic medium supplemented with solvent (citrate buffer 1%) or 2-IB (10, 30, 50, 100 and 300 ng/mL) was added to the cells. Investigations of cell damage, metabolic activity, ROS, hydrogen peroxide, nitrite/nitrate production, erkl/2, akt and stat5 phosphorylation as well as cell stress protein expression were performed with cell culture media or cell protein (FIG. 1).
The release of LDH from cultured cells into the medium was quantified by using a colorimetric cytotoxicity detection kit (Roche, Mannheim, Germany). Samples were prepared based on the manufacturer's protocol. Briefly, culture media were collected 24 hours after hypoxia and stored at −20° C. For evaluation of total LDH, cells were lysed with 2% TRITON® X-100 (Carl Roth, Karlsruhe, Germany) for 15 minutes at 37° C. LDH activity of the samples was measured in 96-well plates at 490 nm using an ELISA reader (Tecan, Crailsheim, Austria) in combination with the Magellan software v1.1.

SMILES: N=C1N[C@H]2[C@H](CS[C@H]2CCCCC(=O)O)N1 [2-IB, 2-iminobiotin]
- hypoxia-induced ROS production (IMR-32 cell cultures [1]; 30 ng/ml 2-IB post-hypoxic, mild hypothermia (33.5° C.)): attenuated the hypoxia-induced ROS production under hypothermic conditions
- hypoxia-induced ROS generation (IMR-32 cell cultures [1]; higher concentrations of 2-IB (above 30 ng/ml), mild hypothermia): less effective in reducing hypoxia-induced ROS generation
- generation of hydrogen peroxide (IMR-32 cell cultures [2]): did not influence generation of hydrogen peroxide
- LDH/total LDH (IMR-32 cells; 30 ng/ml 2-IB, hypoxia): 0.13±0.02
- LDH/total LDH (IMR-32 cells; 30 ng/ml 2-IB, normoxia): 0.11±0.03
- LDH/total LDH (IMR-32 cells; 50 ng/ml 2-IB, hypoxia): 0.14±0.04
- LDH/total LDH (IMR-32 cells; 50 ng/ml 2-IB, normoxia): 0.14±0.04
- LDH/total LDH (IMR-32 cells; 100 ng/ml 2-IB, hypoxia): 0.15±0.03
- LDH/total LDH (IMR-32 cells; 100 ng/ml 2-IB, normoxia): 0.10±0.02
- LDH/total LDH (IMR-32 cells; 300 ng/ml 2-IB, hypoxia): 0.20±0.06
- LDH/total LDH (IMR-32 cells; 300 ng/ml 2-IB, normoxia): 0.10±0.02
- reduction of hypoxia-induced cell damage, most effective concentrations (IMR-32 cells; 10-300 ng/ml tested, P<0.05 vs. control): 30 and 50 ng/ml 2-IB were the most effective concentrations
